Measurements as given in ChEMBL document CHEMBL5113403, “Design, synthesis, and biological evaluation of novel pyrazolo [3,4-d]pyrimidine derivatives as potent PLK4 inhibitors for the treatment of TRIM37-amplified breast cancer” (Eur J Med Chem, 2022).

Legend:
MCF7 [1] = test: Induction of apoptosis in human MCF7 cells assessed as early apoptotic cells at 0.25 uM incubated for 48 hrs by Annexin-V-FITC/PI staining based flow cytometric analysis (reference value: 2.83 %); format: functional
MCF7 [2] = test: Induction of apoptosis in human MCF7 cells assessed as viable cells at 0.50 uM incubated for 48 hrs by Annexin-V-FITC/PI staining based flow cytometric analysis (reference value: 97 %); format: functional; details: dose 0.5 µM
[3] = AUClast in Sprague-Dawley rat at 3 mg/kg, iv by LC-MS/MS analysis; format: ADME, organism-based; design: time 0 - last, dose 3 mg/kg, route iv; details: in vivo
MCF7 [4] = test: Induction of cell cycle arrest in human MCF7 cells assessed as less G1 phase cells at 2.5 uM measured after 48 hrs by flow cytometry analysis (reference value: 0.44 %); format: functional
MCF7 [5] = test: Induction of cell cycle arrest in human MCF7 cells assessed as S phase cells at 0.10 uM measured after 48 hrs by flow cytometry analysis (reference value: 9.31 %); format: functional; details: dose 0.1 µM
CYP2D6 = CYP2D6 (Homo sapiens, UniProt P10635); test: Inhibition of CYP2D6 in human liver microsomes at 10 uM preincubated for 10 mins followed by addition of NADPH-regenerating system and measured after 15 mins by LC-MS/MS analysis relative to control; format: ADME, Microsome; details: time 25 min
MCF7 [6] = test: Induction of cell cycle arrest in human MCF7 cells assessed as decrease in G1 phase cells at 2.5 uM measured after 48 hrs by flow cytometry analysis (reference value: 56.9 %); format: functional; design: scale not given: the % may be the effect or the level left
MCF7 [7] = test: Induction of cell cycle arrest in human MCF7 cells assessed as greater G1 phase cells at 0.50 uM measured after 48 hrs by flow cytometry analysis (reference value: 0.78 %); format: functional; details: dose 0.5 µM
MCF7 [8] = test: Induction of cell cycle arrest in human MCF7 cells assessed as S phase cells at 2.5 uM measured after 48 hrs by flow cytometry analysis (reference value: 9.31 %); format: functional
MCF7 [9] = test: Induction of apoptosis in human MCF7 cells assessed as necrotic cells at 2.5 uM incubated for 48 hrs by Annexin-V-FITC/PI staining based flow cytometric analysis (reference value: 0.18 %); format: functional
MCF7 [10] = test: Induction of apoptosis in human MCF7 cells assessed as early apoptotic cells at 0.10 uM incubated for 48 hrs by Annexin-V-FITC/PI staining based flow cytometric analysis (reference value: 2.83 %); format: functional; details: dose 0.1 µM
[11] = Metabolic stability in human liver microsomes assessed as compound remaining at 100 uM measured after 60 mins in the presence of NADPH by LC-MS/MS analysis; format: ADME, Microsome; details: read-out: Stability
[12] = AUClast in Sprague-Dawley rat at 10 mg/kg, po by LC-MS/MS analysis; format: ADME, organism-based; design: time 0 - last, dose 10 mg/kg, route po; details: in vivo

Sequence of CYP2D6 (P10635 whole entry): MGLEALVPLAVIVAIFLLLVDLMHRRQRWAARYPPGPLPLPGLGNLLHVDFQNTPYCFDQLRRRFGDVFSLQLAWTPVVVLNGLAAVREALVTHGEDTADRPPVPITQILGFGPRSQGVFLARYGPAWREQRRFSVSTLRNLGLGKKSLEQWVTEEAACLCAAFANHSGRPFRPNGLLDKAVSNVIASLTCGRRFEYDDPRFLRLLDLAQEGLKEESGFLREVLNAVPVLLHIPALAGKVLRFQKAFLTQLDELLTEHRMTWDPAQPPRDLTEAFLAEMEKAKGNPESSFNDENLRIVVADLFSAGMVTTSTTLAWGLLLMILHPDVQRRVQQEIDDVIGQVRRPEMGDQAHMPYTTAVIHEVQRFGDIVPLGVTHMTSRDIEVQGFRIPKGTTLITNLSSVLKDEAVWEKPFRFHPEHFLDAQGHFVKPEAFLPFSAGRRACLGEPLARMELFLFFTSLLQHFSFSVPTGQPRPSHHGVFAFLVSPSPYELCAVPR

`Cc1cc(Nc2nc(NCc3ccc(F)cc3F)nc3c2cnn3C2CCOCC2)n[nH]1` gave an Activity (MCF7 [1]) of 24.8%, an Activity (MCF7 [2]) of 32.2% and an AUC(0-t) [3] of 1070 ng·h/mL. The Activity (MCF7 [4]) was 0.39%, the Activity (MCF7 [5]) was 7.46% and the inhibition at 0.25 h, 10 µM (CYP2D6) was 13.4%. For the same compound, the Activity (MCF7 [6]) was 9.8%, the Activity (MCF7 [7]) was 1.34% and the Activity (MCF7 [8]) was 21.6%. The Activity (MCF7 [9]) was 0.98%, the Activity (MCF7 [10]) was 19.3% and the remaining at 1 h, 100 µM [11] was 25.2%. It also gave an AUC(0-t) [12] of 286 ng·h/mL.
